# ChEMBL document CHEMBL1201862, “PubChem BioAssay data set” (2004)
#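 Following 48 hours of exposure in 96-well plates, responses at five concentrations were used to interpolate endpoints linearly. At the GI50, growth is halved.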 Active and inactive are the calls of the source. Cut-off read from the data, not from the text of the source: active = GI50 up to about 1.1 µM and inactive = higher.
# What was measured:
# Experiment in all cases: NCI-60 cell line screen, 48 h
# [1] = test system: ACHN
# [2] = test system: COLO 205
# [3] = test system: DU-145
# [4] = test system: HT-29
# [5] = test system: MCF7
# [6] = test system: MDA-N
# [7] = test system: NCI-H226
# [8] = test system: NCI-H460
# [9] = test system: NCI-H522
# [10] = test system: NCI/ADR-RES
# [11] = test system: OVCAR-5
# [12] = test system: OVCAR-8
# [13] = test system: PC-3
# [14] = test system: RXF 393
# [15] = test system: SF-268
# [16] = test system: SF-539
# [17] = test system: SK-MEL-5
# [18] = test system: TK-10
# [19] = test system: UACC-257
# [20] = test system: UACC-62
SMILES,GI50 [1],GI50 [2],GI50 [3],GI50 [4],GI50 [5],GI50 [6],GI50 [7],GI50 [8],GI50 [9],GI50 [10],GI50 [11],GI50 [12],GI50 [13],GI50 [14],GI50 [15],GI50 [16],GI50 [17],GI50 [18],GI50 [19],GI50 [20]
NCCSCCc1ccccc1,> 100 µM (inactive),> 100 µM (inactive),> 100 µM (inactive),> 100 µM (inactive),> 100 µM (inactive),> 100 µM (inactive),> 100 µM (inactive),> 100 µM (inactive),58.6 µM (inactive),> 100 µM (inactive),> 100 µM (inactive),> 100 µM (inactive),> 100 µM (inactive),> 100 µM (inactive),> 100 µM (inactive),> 100 µM (inactive),> 100 µM (inactive),> 100 µM (inactive),> 100 µM (inactive),> 100 µM (inactive)
COC(=O)[C@@H]1C[C@@H]2c3ccccc3N(S(=O)(=O)c3ccccc3)[C@@H]2N1C(=O)OC,> 100 µM (inactive),> 100 µM (inactive),35.2 µM (inactive),> 100 µM (inactive),> 100 µM (inactive),> 100 µM (inactive),> 100 µM (inactive),> 100 µM (inactive),> 100 µM (inactive),> 100 µM (inactive),44 µM (inactive),> 100 µM (inactive),> 100 µM (inactive),> 100 µM (inactive),> 100 µM (inactive),> 100 µM (inactive),> 100 µM (inactive),> 100 µM (inactive),> 100 µM (inactive),> 100 µM (inactive)
CCOC(=O)C(C(N)=O)C1=Nc2cc([N+](=O)[O-])ccc2N/C1=C\C(=O)c1ccc(C)cc1 (centres undefined),21.3 µM (inactive),27.2 µM (inactive),32.6 µM (inactive),33.1 µM (inactive),22.4 µM (inactive),43.3 µM (inactive),27.4 µM (inactive),22.2 µM (inactive),17.7 µM (inactive),22.1 µM (inactive),70.8 µM (inactive),19 µM (inactive),20 µM (inactive),17.6 µM (inactive),15.1 µM (inactive),17.1 µM (inactive),33.9 µM (inactive),14.8 µM (inactive),39.5 µM (inactive),30.3 µM (inactive)
CNC(=O)N(C1=NCC(C)S1)c1ccc(C)c(C)c1 (centres undefined),12 µM (inactive),3.56 µM (inactive),7.5 µM (inactive),2.52 µM (inactive),2.77 µM (inactive),0.443 µM (active),4.6 µM (inactive),3.36 µM (inactive),4.82 µM (inactive),3.36 µM (inactive),15.6 µM (inactive),4.74 µM (inactive),3.98 µM (inactive),2.46 µM (inactive),4.37 µM (inactive),2.62 µM (inactive),4.08 µM (inactive),9.04 µM (inactive),16.1 µM (inactive),3.56 µM (inactive)
c1cc(-c2ncc(-c3ccc4c(c3)CCCO4)o2)ccn1,22.3 µM (inactive),5.42 µM (inactive),12 µM (inactive),7.4 µM (inactive),12.8 µM (inactive),2.48 µM (inactive),21 µM (inactive),,3.78 µM (inactive),3.94 µM (inactive),42.2 µM (inactive),16.7 µM (inactive),11.5 µM (inactive),8.83 µM (inactive),19.3 µM (inactive),9.38 µM (inactive),9.2 µM (inactive),7.43 µM (inactive),13.2 µM (inactive),15.6 µM (inactive)
C/C=C1\C[C@@H]2C(OC)Nc3cc(O)c(OC)cc3C(=O)N2C1 (some centres undefined),0.00179 µM (active),0.00692 µM (active),< 0.01 µM (active),< 0.01 µM (active),< 0.01 µM (active),< 0.01 µM (active),0.0223 µM (active),< 0.01 µM (active),< 0.01 µM (active),< 0.01 µM (active),< 0.01 µM (active),< 0.01 µM (active),< 0.01 µM (active),< 0.01 µM (active),< 0.01 µM (active),< 0.01 µM (active),< 0.01 µM (active),< 0.0171 µM (active),< 0.01 µM (active),< 0.01 µM (active)
O=[N+]([O-])c1cc(Cc2cc([N+](=O)[O-])c3cccnc3c2O)c(O)c2ncccc12,5.6 µM (inactive),19.7 µM (inactive),9.89 µM (inactive),10.2 µM (inactive),4.4 µM (inactive),10.6 µM (inactive),16.6 µM (inactive),2.18 µM (inactive),3.51 µM (inactive),3.6 µM (inactive),24.8 µM (inactive),3.6 µM (inactive),4.41 µM (inactive),5.32 µM (inactive),3.52 µM (inactive),10.6 µM (inactive),6.79 µM (inactive),12.4 µM (inactive),2.65 µM (inactive),9.48 µM (inactive)
